Reference: patent publication US8288421B2, “Phenylaminopyridines” (Basilea Pharmaceutica AG, priority 2004, dated 2012)
pEC50, pIC50: −log10 of the molar value.

Tests used:
Jily [1] = experiment: MTS proliferation assay; type: cell-based; conditions: 72 h read-out
Description: (§1) The assay is performed in 96 well tissue culture plates. The cells (range: 1.5*10^3-10^4) are seeded out in 80 μl complete medium 24 h prior to compound treatment. The test compounds are added in 20 μl complete medium containing max 5% DMSO. The final compound concentrations in the assays are in the range of 0.001 μM-10 μM. The assay plates are incubated for 72 h at culture conditions. The MTS reagent is prepared according to the manufacturer's protocol (Promega G1111). 20 μl MTS reagent are added to each well, the assay plates are quickly spun and incubated for another 3 h at culture conditions. Subsequently, the plates are shortly shaked and absorption measured with a microplate-reader at 492 nm. The scores A, B, C and D are explained at the end of the Table.

MRC5 [2] = experiment: MTS proliferation assay; type: cell-based; conditions: MRC5, 72 h read-out
Description: as §1

HeLa [3] = experiment: MTS proliferation assay; type: cell-based, human; conditions: 72 h read-out
Description: as §1

Jurkat [4] = experiment: MTS proliferation assay; type: cell-based, human; conditions: 72 h read-out
Description: as §1

HT1080 = experiment: MTS proliferation assay; type: cell-based, human; conditions: HT1080, 72 h read-out
Description: as §1

HeLa [5] = experiment: Hoechst 33342 nuclear staining; type: cell-based, human; conditions: 48 h read-out
Description: (§2) This assay is performed in 96 well tissue culture plates. Appropriate number of cells (adherent cells: 3-5*10^3, suspension cells: 8-10*10^3) are being seeded out in 80 μl complete medium. Adherent cells are incubated for 24 h for proper spreading out before addition of test compounds while suspension cells are immediately treated with test compounds after seeding out. The test compounds are added in 20 μl complete medium containing max 5% DMSO. The final compound concentrations in the assays are in the range of 0.001 μM-10 μM. […] The assay plates are then further incubated for 30 minutes and subsequently analyzed with a standard inverted fluorescence microscope.
(§3) The readout allows the determination of the fraction of apoptotic nuclei as well as other morphological criteria specific for apoptosis as a function of the treatment. The scores A, B, C and D are explained at the end of the Table.

PBL [6] = experiment: Hoechst 33342 nuclear staining; type: cell-based, human; conditions: 48 h read-out
Description: as §2, §3

Jurkat [7] = experiment: Hoechst 33342 nuclear staining; type: cell-based, human; conditions: 48 h read-out
Description: as §2, §3

Jily [8] = experiment: Hoechst 33342 nuclear staining; type: cell-based; conditions: 48 h read-out
Description: as §2, §3

MRC5 [9] = experiment: Hoechst 33342 nuclear staining; type: cell-based; conditions: MRC5, 48 h read-out
Description: as §2, §3

DOHH2 = experiment: Mitochondrial membrane potential (JC-1); type: cell-based; conditions: DOHH2, 48 h read-out
Description: as §2, with “20 μal” for “20 μl”, “DMSO.” for “DMSO. The final compound concentrations in the assays are in the range of 0.001 μM-10 μM.”, “fluorescence microscope by using the FITC and TRITC filters.” for “fluorescence microscope.”
(§4) The scores A, B, C and D are explained at the end of the Table.

HeLa [10] = experiment: Mitochondrial membrane potential (JC-1); type: cell-based, human; conditions: 48 h read-out
Description: as §2, with “20 μal” for “20 μl”, “DMSO.” for “DMSO. The final compound concentrations in the assays are in the range of 0.001 μM-10 μM.”, “fluorescence microscope by using the FITC and TRITC filters.” for “fluorescence microscope.”
as §4

PBL [11] = experiment: Mitochondrial membrane potential (JC-1); type: cell-based, human; conditions: 48 h read-out
Description: as §2, with “20 μal” for “20 μl”, “DMSO.” for “DMSO. The final compound concentrations in the assays are in the range of 0.001 μM-10 μM.”, “fluorescence microscope by using the FITC and TRITC filters.” for “fluorescence microscope.”
as §4

MCF7 = experiment: Mitochondrial membrane potential (JC-1); type: cell-based, human; conditions: MCF7, 48 h read-out
Description: as §2, with “20 μal” for “20 μl”, “DMSO.” for “DMSO. The final compound concentrations in the assays are in the range of 0.001 μM-10 μM.”, “fluorescence microscope by using the FITC and TRITC filters.” for “fluorescence microscope.”
as §4

Jurkat [12] = experiment: Mitochondrial membrane potential (JC-1); type: cell-based, human; conditions: 48 h read-out
Description: as §2, with “20 μal” for “20 μl”, “DMSO.” for “DMSO. The final compound concentrations in the assays are in the range of 0.001 μM-10 μM.”, “fluorescence microscope by using the FITC and TRITC filters.” for “fluorescence microscope.”
as §4

HeLa [13] = experiment: PI staining for cell cycle distribution; type: cell-based, human; conditions: 24 h read-out, read-out: PI staining for cell cycle distribution EC50 (G2M arrest), HeLa
Description: 1-2*10^5 cells are seeded into 24 well tissue culture plates and incubated for 24 h prior to compound addition. Compounds are added for 24 h in a final concentration of 3 μM or 10 μM. Adherent cells are harvested by trypsinization. The cell suspensions are fixed by adding 2 parts ice cold ethanol 100% while vortexing. Then the samples are stored for >2 h at −20° C. Subsequently the cells are washed with PBS once and resuspended in 250 μl PBS containing 50 μg/ml PI (Calbiochem #537059), then the samples are incubated at 37° C. for 30 minutes and subsequently analyzed on a FACSCalibur™ monitoring linear PI fluorescence activity on FL2. The readout allows the detection of a possible direct or indirect influence of the tested compounds on the cell cycle. All active test compounds induce an arrest of the cell population in the G2M phase. This effect has been quantified by running the test at different concentrations. In Table 4 EC50 values are tabulated.

SMILES | pIC50 (Jily [1]) | pEC50 (Jily [8]) | pIC50 (MRC5 [2]) | pIC50 (HeLa [3]) | pIC50 (Jurkat [4]) | pIC50 (HT1080) | pEC50 (HeLa [13]) | pEC50 (HeLa [5]) | pEC50 (PBL [6]) | pEC50 (Jurkat [7]) | pEC50 (MRC5 [9]) | pEC50 (DOHH2) | pEC50 (HeLa [10]) | pEC50 (PBL [11]) | pEC50 (MCF7) | pEC50 (Jurkat [12]) | also measured
COc1ccc(Nc2cncc(-c3cccc(Nc4ccccn4)c3)c2)cc1 [Example 3, 5-(p-Methoxyphenylamino)-3-(m-[2-pyridylamino]phenyl)pyridine] | 7.00 to 8.00 | 7.00 to 8.00 | – | – | – | – | – | – | – | – | – | – | – | – | – | – | pIC50 (MRC5 [2]; Homo sapiens): 6.00 to 7.00; pIC50 (HeLa [3]; Homo sapiens): 6.00 to 7.00; pIC50 (Jurkat [4]; Homo sapiens): 7.00 to 8.00; pIC50 (HT1080; Homo sapiens, HT-1080): 7.00 to 8.00; pEC50 (HeLa [5]; Homo sapiens): 6.00 to 7.00; pEC50 (PBL [6]; Homo sapiens): < 6.00; pEC50 (Jurkat [7]; Homo sapiens): 7.00 to 8.00; pEC50 (MRC5 [9]; Homo sapiens): 6.00 to 7.00; melting point: 161 to 165 °C; pEC50 (DOHH2; Homo sapiens, DOHH-2): 7.00 to 8.00; pEC50 (HeLa [10]; Homo sapiens): 6.00 to 7.00; pEC50 (PBL [11]; Homo sapiens): < 6.00; pEC50 (MCF7; Homo sapiens): 6.00 to 7.00; pEC50 (Jurkat [12]; Homo sapiens): 7.00 to 8.00
COc1ccc(Nc2cncc(-c3cccc(NS(=O)(=O)CCCCl)c3)c2)cc1 [Example 7] | 7.00 to 8.00 | 7.00 to 8.00 | 6.00 to 7.00 | 6.00 to 7.00 | 7.00 to 8.00 | 6.00 to 7.00 | 6.00 to 7.00 | 7.00 to 8.00 | < 6.00 | 7.00 to 8.00 | 7.00 to 8.00 | 7.00 to 8.00 | 6.00 to 7.00 | < 6.00 | < 6.00 | 7.00 to 8.00 | –
COc1ccc(Nc2cncc(-c3cccc(NC(=O)c4cccnc4Cl)c3)c2)cc1 [Example 11] | 7.00 to 8.00 | 7.00 to 8.00 | 7.00 to 8.00 | 7.00 to 8.00 | 7.00 to 8.00 | 7.00 to 8.00 | > 8.00 | 7.00 to 8.00 | < 6.00 | 7.00 to 8.00 | 7.00 to 8.00 | 7.00 to 8.00 | 7.00 to 8.00 | < 6.00 | < 6.00 | 7.00 to 8.00 | –
COc1ccc(Nc2cncc(-c3cccc(NC(=O)c4ccncc4)c3)c2)cc1 [Example 16] | – | > 8.00 | > 8.00 | 7.00 to 8.00 | – | > 8.00 | 7.00 to 8.00 | 7.00 to 8.00 | < 6.00 | > 8.00 | > 8.00 | > 8.00 | 7.00 to 8.00 | < 6.00 | 6.00 to 7.00 | > 8.00 | –
COc1ccc(Nc2cncc(-c3cccc(NC(=O)c4cccc(OC)c4)c3)c2)cc1 [Example 25] | 6.00 to 7.00 | < 6.00 | < 6.00 | < 6.00 | 6.00 to 7.00 | < 6.00 | – | < 6.00 | < 6.00 | 6.00 to 7.00 | < 6.00 | < 6.00 | < 6.00 | < 6.00 | < 6.00 | 6.00 to 7.00 | –
COc1ccc(Nc2cncc(-c3cccc(NC(=O)C(C)C)c3)c2)cc1 [Example 26] | 7.00 to 8.00 | 6.00 to 7.00 | 6.00 to 7.00 | 6.00 to 7.00 | 7.00 to 8.00 | 6.00 to 7.00 | – | 6.00 to 7.00 | < 6.00 | 7.00 to 8.00 | < 6.00 | 6.00 to 7.00 | < 6.00 | < 6.00 | < 6.00 | 6.00 to 7.00 | –
O=C(Nc1cccc(-c2cncc(Nc3ccc(OCc4ccccc4)cc3)c2)c1)c1ccccc1 [Example 27] | < 6.00 | < 6.00 | < 6.00 | < 6.00 | < 6.00 | < 6.00 | – | < 6.00 | < 6.00 | < 6.00 | < 6.00 | < 6.00 | < 6.00 | < 6.00 | < 6.00 | < 6.00 | –
COc1ccc(Nc2cncc(-c3cccc(NC(=O)c4ccccc4)c3)c2)cc1OC [Example 29] | 6.00 to 7.00 | 6.00 to 7.00 | < 6.00 | < 6.00 | 6.00 to 7.00 | < 6.00 | – | 6.00 to 7.00 | < 6.00 | 6.00 to 7.00 | < 6.00 | < 6.00 | < 6.00 | < 6.00 | < 6.00 | 6.00 to 7.00 | –
COc1ccc(Nc2cncc(-c3cccc(NC(=O)c4ccccc4)c3)c2)c(OC)c1 [Example 30] | 6.00 to 7.00 | 6.00 to 7.00 | < 6.00 | < 6.00 | 6.00 to 7.00 | < 6.00 | – | < 6.00 | < 6.00 | 6.00 to 7.00 | < 6.00 | < 6.00 | < 6.00 | < 6.00 | < 6.00 | < 6.00 | –
